Literature values in US20040067947A1, “Method of preventing or treating atherosclerosis or restenosis” (priority 2002, published 2004).

Test system: CMV infection of rats
Settings: rats infected with CMV; DHPG prophylaxis; Lemstrom et al., Circulation 1994, 90:1969-1978

For `Nc1nc(O)c2ncn(COC(CO)CO)c2n1` [Ganciclovir], the “prevention of atherosclerosis resulting from CMV infection” value is listed as “prevent atherosclerosis”.
